Key:
Format in all cases: in vivo
[1] = system: wheat (Triticum aestivum); experiment: Test Example 1 upland field foliage treatment, crop phytotoxicity; details: Table 4, upland field foliage treatment, index 0-5
In short: (§1)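 Post-emergence foliar spray of water-diluted wettable powder at 1 kg active ingredient per hectare, applied 14 days after sowing in upland soil. Weed control or crop phytotoxicity rated 21 days later on a 0–5 scale (5: ≥90%, 0: <10%).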

soybean (Glycine max) [2] = experiment: as above; details: Table 4, upland field foliage treatment, index 0-5
In short: as §1

Digitaria adscendens [3] = experiment: Test Example 1 upland field foliage treatment; details: Table 4, upland field foliage treatment, index 0-5
In short: as §1

Chenopodium album [4] = experiment: Test Example 1 upland field foliage treatment; details: Table 4, upland field foliage treatment, index 0-5
In short: as §1

Setaria viridis [5] = experiment: Test Example 1 upland field foliage treatment; details: Table 4, upland field foliage treatment, index 0-5
In short: as §1

Stellaria media [6] = experiment: Test Example 1 upland field foliage treatment; details: Table 4, upland field foliage treatment, index 0-5
In short: as §1

Digitaria adscendens [7] = experiment: Test Example 2 upland soil treatment; details: Table 5, upland soil treatment, index 0-5
In short: (§2)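 Pre-emergence soil application the day after sowing, active ingredient at 1 kg per hectare as diluted wettable powder, seeds covered with about 1 cm soil. Assessed 21 days after application on a 0–5 scale (5 = ≥90% herbicidal effect or phytotoxicity; 0 = <10%).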

Chenopodium album [8] = experiment: Test Example 2 upland soil treatment; details: Table 5, upland soil treatment, index 0-5
In short: as §2

Setaria viridis [9] = experiment: Test Example 2 upland soil treatment; details: Table 5, upland soil treatment, index 0-5
In short: as §2

Stellaria media [10] = experiment: Test Example 2 upland soil treatment; details: Table 5, upland soil treatment, index 0-5
In short: as §2

[11] = system: wheat (Triticum aestivum); experiment: Test Example 2 upland soil treatment, crop phytotoxicity; details: Table 5, upland soil treatment, index 0-5
In short: as §2

soybean (Glycine max) [12] = experiment: as above; details: Table 5, upland soil treatment, index 0-5
In short: as §2

Scirpus juncoides = experiment: Test Example 3 paddy field treatment; details: paddy field treatment, wettable powder, active ingredient 1 kg per hectare, 21st day after the dropping, index 0-5
In short: (§3)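 Weed seeds sown in puddled paddy soil under 4 cm water, with two-leaf Koshihikari rice transplanted; 10 days later a wettable powder was applied to the water surface at 1 kg active ingredient/ha. Scored 21 days after application on a 0–5 scale (0 = <10%, 5 = ≥90% herbicidal effect or phytotoxicity).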

Monochoria vaginalis = experiment: Test Example 3 paddy field treatment; details: paddy field treatment, wettable powder, active ingredient 1 kg per hectare, 21st day after the dropping, index 0-5
In short: as §3

Echinochloa crusgalli = experiment: Test Example 3 paddy field treatment; details: paddy field treatment, wettable powder, active ingredient 1 kg per hectare, 21st day after the dropping, index 0-5
In short: as §3

Ammannia multiflora = experiment: Test Example 3 paddy field treatment; details: paddy field treatment, wettable powder, active ingredient 1 kg per hectare, 21st day after the dropping, index 0-5
In short: as §3

Rice (Oryza sativa) = experiment: Test Example 3 paddy field treatment, crop phytotoxicity; details: paddy field treatment, transplanted rice Koshihikari, wettable powder, active ingredient 1 kg per hectare, 21st day after the dropping, index 0-5
In short: as §3

| Compound | Herbicidal activity (phytotoxicity) TA: Wheat (Triticum aestivum) [1] | Herbicidal activity (phytotoxicity) GM: Soybean (Glycine max) (soybean (Glycine max) [2]) | Herbicidal activity DA: Digitaria adscendens (Digitaria adscendens [3]) | Herbicidal activity CA: Chenopodium album (Chenopodium album [4]) | Herbicidal activity SV: Setaria viridis (Setaria viridis [5]) | Herbicidal activity SM: Stellaria media (Stellaria media [6]) | Herbicidal activity DA: Digitaria adscendens (Digitaria adscendens [7]) | Herbicidal activity CA: Chenopodium album (Chenopodium album [8]) | Herbicidal activity SV: Setaria viridis (Setaria viridis [9]) | Herbicidal activity SM: Stellaria media (Stellaria media [10]) | Herbicidal activity (phytotoxicity) TA: Wheat (Triticum aestivum) [11] | Herbicidal activity (phytotoxicity) GM: Soybean (Glycine max) (soybean (Glycine max) [12]) | Herbicidal activity SJ (Scirpus juncoides) | Herbicidal activity MV (Monochoria vaginalis) | Herbicidal activity EC (Echinochloa crusgalli) | Herbicidal activity AM (Ammannia multiflora) | Herbicidal activity OS (phytotoxicity to rice) (Rice (Oryza sativa)) |
| --- | --- | --- | --- | --- | --- | --- | --- | --- | --- | --- | --- | --- | --- | --- | --- | --- | --- |
| CON=C(Cn1cc(C)c(-c2ccccc2)n1)C(=O)NCC#N [Compound 33] | 0 (herbicidal effect of not less than 0% and less than 10%, or phytotoxicity of 0% or more and less than 10%) | 0 (herbicidal effect of not less than 0% and less than 10%, or phytotoxicity of 0% or more and less than 10%) | 5 (herbicidal effect of not less than 90%, or phytotoxicity of 90% or more) | 4 (herbicidal effect of not less than 70% and less than 90%, or phytotoxicity of 70% or more and less than 90%) | 4 (herbicidal effect of not less than 70% and less than 90%, or phytotoxicity of 70% or more and less than 90%) | 4 (herbicidal effect of not less than 70% and less than 90%, or phytotoxicity of 70% or more and less than 90%) | 5 (herbicidal effect of not less than 90%, or phytotoxicity of 90% or more) | 5 (herbicidal effect of not less than 90%, or phytotoxicity of 90% or more) | 4 (herbicidal effect of not less than 70% and less than 90%, or phytotoxicity of 70% or more and less than 90%) | 5 (herbicidal effect of not less than 90%, or phytotoxicity of 90% or more) | 0 (herbicidal effect of not less than 0% and less than 10%, or phytotoxicity of 0% or more and less than 10%) | 0 (herbicidal effect of not less than 0% and less than 10%, or phytotoxicity of 0% or more and less than 10%) | 4 (herbicidal effect of not less than 70% and less than 90%, or phytotoxicity of 70% or more and less than 90%) | 5 (herbicidal effect of not less than 90%, or phytotoxicity of 90% or more) | 5 (herbicidal effect of not less than 90%, or phytotoxicity of 90% or more) | 5 (herbicidal effect of not less than 90%, or phytotoxicity of 90% or more) | 0 (herbicidal effect of not less than 0% and less than 10%, or phytotoxicity of 0% or more and less than 10%) |
| CON=C(Cn1cc(C)c(-c2ccccc2)n1)C(=O)NCC(F)(F)F [Compound 34] | 0 (herbicidal effect of not less than 0% and less than 10%, or phytotoxicity of 0% or more and less than 10%) | 0 (herbicidal effect of not less than 0% and less than 10%, or phytotoxicity of 0% or more and less than 10%) | 5 (herbicidal effect of not less than 90%, or phytotoxicity of 90% or more) | 4 (herbicidal effect of not less than 70% and less than 90%, or phytotoxicity of 70% or more and less than 90%) | 4 (herbicidal effect of not less than 70% and less than 90%, or phytotoxicity of 70% or more and less than 90%) | 4 (herbicidal effect of not less than 70% and less than 90%, or phytotoxicity of 70% or more and less than 90%) | 5 (herbicidal effect of not less than 90%, or phytotoxicity of 90% or more) | 5 (herbicidal effect of not less than 90%, or phytotoxicity of 90% or more) | 4 (herbicidal effect of not less than 70% and less than 90%, or phytotoxicity of 70% or more and less than 90%) | 5 (herbicidal effect of not less than 90%, or phytotoxicity of 90% or more) | 0 (herbicidal effect of not less than 0% and less than 10%, or phytotoxicity of 0% or more and less than 10%) | 0 (herbicidal effect of not less than 0% and less than 10%, or phytotoxicity of 0% or more and less than 10%) | 5 (herbicidal effect of not less than 90%, or phytotoxicity of 90% or more) | 5 (herbicidal effect of not less than 90%, or phytotoxicity of 90% or more) | 5 (herbicidal effect of not less than 90%, or phytotoxicity of 90% or more) | 5 (herbicidal effect of not less than 90%, or phytotoxicity of 90% or more) | 1 (herbicidal effect of not less than 10% and less than 30%, or phytotoxicity of 10% or more and less than 30%) |
| CNC(=O)C(Cn1cc(C)c(-c2ccc(C)cc2)n1)=NOC [Compound 37] | 0 (herbicidal effect of not less than 0% and less than 10%, or phytotoxicity of 0% or more and less than 10%) | 0 (herbicidal effect of not less than 0% and less than 10%, or phytotoxicity of 0% or more and less than 10%) | 5 (herbicidal effect of not less than 90%, or phytotoxicity of 90% or more) | 5 (herbicidal effect of not less than 90%, or phytotoxicity of 90% or more) | 5 (herbicidal effect of not less than 90%, or phytotoxicity of 90% or more) | 5 (herbicidal effect of not less than 90%, or phytotoxicity of 90% or more) | 5 (herbicidal effect of not less than 90%, or phytotoxicity of 90% or more) | 5 (herbicidal effect of not less than 90%, or phytotoxicity of 90% or more) | 5 (herbicidal effect of not less than 90%, or phytotoxicity of 90% or more) | 5 (herbicidal effect of not less than 90%, or phytotoxicity of 90% or more) | 0 (herbicidal effect of not less than 0% and less than 10%, or phytotoxicity of 0% or more and less than 10%) | 0 (herbicidal effect of not less than 0% and less than 10%, or phytotoxicity of 0% or more and less than 10%) | 5 (herbicidal effect of not less than 90%, or phytotoxicity of 90% or more) | 5 (herbicidal effect of not less than 90%, or phytotoxicity of 90% or more) | 5 (herbicidal effect of not less than 90%, or phytotoxicity of 90% or more) | 5 (herbicidal effect of not less than 90%, or phytotoxicity of 90% or more) | 1 (herbicidal effect of not less than 10% and less than 30%, or phytotoxicity of 10% or more and less than 30%) |
| CNC(=O)C(Cn1cc(C)c(-c2ccc(OC)cc2)n1)=NOC [Compound 41, 2-methoxyimino-3-((4′-methoxyphenyl)-4-methyl-pyrazole)-1-yl-propanoic acid-N-methylamide] | 0 (herbicidal effect of not less than 0% and less than 10%, or phytotoxicity of 0% or more and less than 10%) | 1 (herbicidal effect of not less than 10% and less than 30%, or phytotoxicity of 10% or more and less than 30%) | 5 (herbicidal effect of not less than 90%, or phytotoxicity of 90% or more) | 5 (herbicidal effect of not less than 90%, or phytotoxicity of 90% or more) | 5 (herbicidal effect of not less than 90%, or phytotoxicity of 90% or more) | 5 (herbicidal effect of not less than 90%, or phytotoxicity of 90% or more) | 5 (herbicidal effect of not less than 90%, or phytotoxicity of 90% or more) | 5 (herbicidal effect of not less than 90%, or phytotoxicity of 90% or more) | 5 (herbicidal effect of not less than 90%, or phytotoxicity of 90% or more) | 5 (herbicidal effect of not less than 90%, or phytotoxicity of 90% or more) | 0 (herbicidal effect of not less than 0% and less than 10%, or phytotoxicity of 0% or more and less than 10%) | 1 (herbicidal effect of not less than 10% and less than 30%, or phytotoxicity of 10% or more and less than 30%) | 5 (herbicidal effect of not less than 90%, or phytotoxicity of 90% or more) | 5 (herbicidal effect of not less than 90%, or phytotoxicity of 90% or more) | 5 (herbicidal effect of not less than 90%, or phytotoxicity of 90% or more) | 5 (herbicidal effect of not less than 90%, or phytotoxicity of 90% or more) | 0 (herbicidal effect of not less than 0% and less than 10%, or phytotoxicity of 0% or more and less than 10%) |

From patent publication US7192906B2, “Substituted pyrazole derivatives, production process thereof, and herbicide compositions containing the derivatives” (SDS Biotech K.K., priority 2001, dated 2007)
